# Experimental data: patent publication US10363229B2, “Methods and compositions for the treatment of cancer” (priority 2009, dated 2019)
# What was measured:
# melanoma cells = assay: Soft agar assay for colony formation; format: cell-based, mouse; conditions: 2% methyl sulfone; control hundreds of colonies
# Procedure: Cells were plated on 8-35 mm plates that contained base agar with and without 2% methyl sulfone. To make base agar, 1% agar (DNA grade; Difco Bacto Agar; Becton Dickenson and Company, Sparks, Md.), was mixed in water at room temperature, melted in a microwave, and cooled to 40° C. before using. For drug plates, 1% agar was combined (1:1) with 4% methyl sulfone in 2×RPMI medium with sodium bicarbonate supplemented with 10% FBS and 5% penicillin/streptomycin. For control plates, 1% agar was combined (1:1) with 2×RMPI medium. Agar +/−2% methyl sulfone was added to appropriate 35 mm tissue culture plates and stored overnight at 4° C. The next day top agar and cells were placed on top of the base agar. Top agar was made with 0.66% agar in water. The agar was melted in a microwave, cooled, and stored at 40° C. 2×RPMI medium and 4% methyl sulfone was also stored at 40° C. Cells were trypsinized and counted for a final concentration of 5×10^3 cells/plate. Cell counts were adjusted to 2×10^5 cells/ml and 0.05 ml of the cell suspension was added to 15 ml centrifuge tubes (2 each). Base agar plates were removed from 4° C. and allowed to warm to room temperature for approximately 30 minutes prior to plating. […] Colonies were photographed and counted with a dissecting microscope. […]
# [1] = tested on: microtubules in melanoma cells; assay: Immunofluorescence of microtubules, incl. vinblastine stability test; format: cell-based, mouse
# Procedure: Cells were plated in 6-100 mm tissue culture plates, each containing 1 polylysine-coated 10-well slide, or plated onto polylysine-coated coverslips. Once cells were approximately 50% confluent, 2% methyl sulfone was added to cells for 10, 30, 60, 90, and 120 minutes. At each time point cells were placed in microtubule stabilizing buffer ( ) for 10 minutes followed by incubation in −20° C. methanol for 5 minutes. Cells were washed twice in 0.1% Triton X-100 in PBS at room temperature, then incubated with mouse monoclonal anti-alpha-tubulin antibody (Santa Cruz Biotech, Calif.; diluted 1/200 in 1% BSA/PBS) for 1.5 hours. Cells were washed 5 times in 0.1% Triton X-100/PBS, 3 minutes each. Cells were incubated with secondary antibody (Alexa Fluor 568 rabbit anti-mouse antibody; diluted 1/100 in 1%/PBS) for 30 minutes in the dark. Cells were washed five times in 0.1% Triton X-100/PBS, three minutes each. Cells were washed two times in PBS at 2 minute intervals and incubated with DAPI (1 μg/ml in PBS) for 5 minutes at room temperature and in the dark. Cells were washed in PBS for one minute. SlowFade was added to glass slides, coverslips were placed cell side down and sealed with nail polish. Microtubules were viewed at the Center for Cell Analysis and Modeling, University of Connecticut Health Center, Farmington, Conn., with an Axioplan CCD Microscope equipped with a 40×1.3 NA FL objective lens and Photometrics PXL-EEV37 high speed digital cooled CCD camera via Metamorph image acquisition and analysis software (Universal Imaging Corp., Downington, Pa.).
# One assay to test stability of microtubules is to give cells increasing concentrations of a microtubule-disassembly drug and use immunofluorescence microscopy to assess microtubule lengths (Caron et al). A higher concentration of drug will be required to disassemble the more stabilized microtubules. We used different concentrations of the anti-microtubule drug, vinblastine, to assess microtubule stability in control cells and cells incubated with 2% methyl sulfone.
substance,measurement,setting,value
methyl sulfone,colony formation on soft agar (anchorage-independent growth),melanoma cells,no colony formation
same,time to microtubule disassembly after adding drug,[1]; 2% methyl sulfone,≤ 10 min
same,microtubules in the presence of vinblastine (stability),[1]; 2% methyl sulfone plus 10^−7 M vinblastine,clearly visible
same,pattern of microtubule reassembly,"[1]; 2% methyl sulfone, over the next two hours",re-appeared in an orderly pattern
